Reference: PubChem BioAssay AID2060614 (Molecular Pharmacology Branch, DTP, NCI, 2025)
Where “and” joins values, the source holds several entries; their conditions need not be identical. Identical values can stand only once. One block for each compound: values may come before it.

Test system: 598228-144-R-J1-PDC complex spheroids, viability
Assay: Anticancer human tumor 598228-144-R-J1-PDC patient-derived serous endometrial adenocarcinoma cell line growth inhibition [CLK]
Settings: for viability, T/C: stronger effect = lower value
Summary of the method: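 Multi-cell-type spheroids combined patient-derived tumor cells with HUVEC endothelial cells and human mesenchymal stem cells. Paired agents were dosed in half-log steps down from about clinical Cmax, or from 10 microM where Cmax was unknown.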

[1] = curve of first compound, second compound 0.0316 µM
[2] = curve of first compound, second compound 0.1 µM
[3] = curve of first compound, second compound 0.316 µM
[4] = curve of first compound, second compound 1 µM
[5] = curve of first compound, second compound 3.16 µM
[6] = curve of first compound, second compound 10 µM
[7] = second compound 0.0316 µM, first compound 0.0316 µM
[8] = second compound 0.0316 µM, first compound 0.1 µM
[9] = second compound 0.0316 µM, first compound 0.316 µM
[10] = second compound 0.0316 µM, first compound 1 µM
[11] = second compound 0.0316 µM, first compound 3.16 µM
[12] = second compound 0.0316 µM, first compound 10 µM
[13] = second compound 0.1 µM, first compound 0.0316 µM
[14] = second compound 0.1 µM, first compound 0.1 µM
[15] = second compound 0.1 µM, first compound 0.316 µM
[16] = second compound 0.1 µM, first compound 1 µM
[17] = second compound 0.1 µM, first compound 3.16 µM
[18] = second compound 0.1 µM, first compound 10 µM
[19] = second compound 0.316 µM, first compound 0.0316 µM
[20] = second compound 0.316 µM, first compound 0.1 µM
[21] = second compound 0.316 µM, first compound 0.316 µM
[22] = second compound 0.316 µM, first compound 1 µM
[23] = second compound 0.316 µM, first compound 3.16 µM
[24] = second compound 0.316 µM, first compound 10 µM
[25] = second compound 1 µM, first compound 0.0316 µM
[26] = second compound 1 µM, first compound 0.1 µM
[27] = second compound 1 µM, first compound 0.316 µM
[28] = second compound 1 µM, first compound 1 µM
[29] = second compound 1 µM, first compound 3.16 µM
[30] = second compound 1 µM, first compound 10 µM
[31] = second compound 3.16 µM, first compound 0.0316 µM
[32] = second compound 3.16 µM, first compound 0.1 µM
[33] = second compound 3.16 µM, first compound 0.316 µM
[34] = second compound 3.16 µM, first compound 1 µM
[35] = second compound 3.16 µM, first compound 3.16 µM
[36] = second compound 3.16 µM, first compound 10 µM
[37] = second compound 10 µM, first compound 0.0316 µM
[38] = second compound 10 µM, first compound 0.1 µM
[39] = second compound 10 µM, first compound 0.316 µM
[40] = second compound 10 µM, first compound 1 µM
[41] = second compound 10 µM, first compound 3.16 µM
[42] = second compound 10 µM, first compound 10 µM
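Further: spheroids exposed to compounds for seven days before readout.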
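Wherever viability, T/C is given: 100% = DMSO vehicle control wells.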

SMILES: CC(=O)O[C@H]1C(=O)[C@@]2(C)[C@H]([C@H](OC(=O)c3ccccc3)[C@]3(O)C[C@H](OC(=O)[C@H](O)[C@@H](NC(=O)c4ccccc4)c4ccccc4)C(C)=C1C3(C)C)[C@]1(OC(C)=O)CO[C@@H]1C[C@@H]2O
viability, T/C (compound 0.0316 µM): 35.4% and 37%
viability, T/C (compound 0.1 µM): 33.6% and 37%
viability, T/C (compound 0.316 µM): 31% and 30.4%
viability, T/C (compound 1 µM): 25.1% and 34.2%
viability, T/C (compound 3.16 µM): 32.1% and 36.1%
viability, T/C (compound 10 µM): 32.5% and 47.5%
IC50 (curve of compound): < 0.0316 µM

SMILES: CC1(C)CCC(CN2CCN(c3ccc(C(=O)NS(=O)(=O)c4ccc(NCC5CCOCC5)c([N+](=O)[O-])c4)c(Oc4cnc5[nH]ccc5c4)c3)CC2)=C(c2ccc(Cl)cc2)C1 + CN1CCN(c2cc(C(=O)Nc3cc4cc(-c5cnn(C)c5)ccc4cn3)ccn2)CC1
IC50 [1]: 7.68 µM
IC50 [2]: 7.69 µM
IC50 [3]: < 0.0316 µM
IC50 [4]: < 0.0316 µM
IC50 [5]: < 0.0316 µM
IC50 [6]: < 0.0316 µM
viability, T/C [7]: 138%
viability, T/C [8]: 113%
viability, T/C [9]: 111%
viability, T/C [10]: 118%
viability, T/C [11]: 114%
viability, T/C [12]: 30.9%
viability, T/C [13]: 116%
viability, T/C [14]: 121%
viability, T/C [15]: 116%
viability, T/C [16]: 124%
viability, T/C [17]: 113%
viability, T/C [18]: 31%
viability, T/C [19]: 19.3%
viability, T/C [20]: 16.8%
viability, T/C [21]: 14.4%
viability, T/C [22]: 15.5%
viability, T/C [23]: 11.9%
viability, T/C [24]: 7.07%
viability, T/C [25]: 1.25%
viability, T/C [26]: 1.59%
viability, T/C [27]: 2.76%
viability, T/C [28]: 1.46%
viability, T/C [29]: 2.58%
viability, T/C [30]: 1.73%
viability, T/C [31]: 1.65%
viability, T/C [32]: 3.1%
viability, T/C [33]: 1.66%
viability, T/C [34]: 1.86%
viability, T/C [35]: 3.99%
viability, T/C [36]: 4.73%
viability, T/C [37]: 0.92%
viability, T/C [38]: 2.13%
viability, T/C [39]: 0.62%
viability, T/C [40]: 0.79%
viability, T/C [41]: 2.58%
viability, T/C [42]: 3.9%

SMILES: NC(=O)C(=Cn1cnc(-c2cc(C(F)(F)F)cc(C(F)(F)F)c2)n1)c1cncnc1
viability, T/C (compound 0.00949 µM): 89% and 103%
viability, T/C (compound 0.03 µM): 80.9% and 101%
viability, T/C (compound 0.0949 µM): 52.1% and 86.2%
viability, T/C (compound 0.3 µM): 32% and 38.9%
viability, T/C (compound 0.949 µM): 15% and 30.6%
viability, T/C (compound 3 µM): 18.1% and 21.5%
IC50 (curve of compound): 0.114 µM and 0.232 µM

SMILES: CC1COCCN1c1cc(C2(S(C)(=N)=O)CC2)nc(-c2ccnc3[nH]ccc23)n1 (centres undefined)
viability, T/C (compound 0.0316 µM): 96.7% and 86.2%
viability, T/C (compound 0.1 µM): 110% and 86.8%
viability, T/C (compound 0.316 µM): 98.8% and 87.7%
viability, T/C (compound 1 µM): 72.7% and 79%
viability, T/C (compound 3.16 µM): 58.1% and 61.5%
viability, T/C (compound 10 µM): 34.3% and 34.9%
IC50 (curve of compound): 4.04 µM and 5.18 µM

Second part, led by results:

IC50 [1]: > 0.3 µM
IC50 [2]: > 0.3 µM
IC50 [3]: > 0.3 µM
IC50 [4]: > 0.3 µM
IC50 [5]: > 0.3 µM
IC50 [6]: > 0.3 µM
SMILES: C=CC(=O)Nc1cc(Nc2nccc(-c3cn(C)c4ccccc34)n2)c(OC)cc1N(C)CCN(C)C + CNC(=O)c1ccc(Nc2nc(OC3CCCC3)c3c(-c4ccc5nc(C)oc5c4)c[nH]c3n2)c(OC)c1
viability, T/C (second compound 0.0316 µM, first compound 0.000949 µM): 124%
viability, T/C (second compound 0.0316 µM, first compound 0.003 µM): 113%
viability, T/C (second compound 0.0316 µM, first compound 0.00949 µM): 107%
viability, T/C (second compound 0.0316 µM, first compound 0.03 µM): 115%
viability, T/C (second compound 0.0316 µM, first compound 0.0949 µM): 101%
viability, T/C (second compound 0.0316 µM, first compound 0.3 µM): 105%
viability, T/C (second compound 0.1 µM, first compound 0.000949 µM): 120%
viability, T/C (second compound 0.1 µM, first compound 0.003 µM): 103%
viability, T/C (second compound 0.1 µM, first compound 0.00949 µM): 104%
viability, T/C (second compound 0.1 µM, first compound 0.03 µM): 104%
viability, T/C (second compound 0.1 µM, first compound 0.0949 µM): 103%
viability, T/C (second compound 0.1 µM, first compound 0.3 µM): 78.3%
viability, T/C (second compound 0.316 µM, first compound 0.000949 µM): 112%
viability, T/C (second compound 0.316 µM, first compound 0.003 µM): 109%
viability, T/C (second compound 0.316 µM, first compound 0.00949 µM): 120%
viability, T/C (second compound 0.316 µM, first compound 0.03 µM): 93.5%
viability, T/C (second compound 0.316 µM, first compound 0.0949 µM): 96.5%
viability, T/C (second compound 0.316 µM, first compound 0.3 µM): 77.7%
viability, T/C (second compound 1 µM, first compound 0.000949 µM): 104%
viability, T/C (second compound 1 µM, first compound 0.003 µM): 90.3%
viability, T/C (second compound 1 µM, first compound 0.00949 µM): 90.5%
viability, T/C (second compound 1 µM, first compound 0.03 µM): 99%
viability, T/C (second compound 1 µM, first compound 0.0949 µM): 91.2%
viability, T/C (second compound 1 µM, first compound 0.3 µM): 94.1%
viability, T/C (second compound 3.16 µM, first compound 0.000949 µM): 101%
viability, T/C (second compound 3.16 µM, first compound 0.003 µM): 102%
viability, T/C (second compound 3.16 µM, first compound 0.00949 µM): 80.9%
viability, T/C (second compound 3.16 µM, first compound 0.03 µM): 87.6%
viability, T/C (second compound 3.16 µM, first compound 0.0949 µM): 82.7%
viability, T/C (second compound 3.16 µM, first compound 0.3 µM): 62.3%
viability, T/C (second compound 10 µM, first compound 0.000949 µM): 86.5%
viability, T/C (second compound 10 µM, first compound 0.003 µM): 86.4%
viability, T/C (second compound 10 µM, first compound 0.00949 µM): 86.3%
viability, T/C (second compound 10 µM, first compound 0.03 µM): 73.1%
viability, T/C (second compound 10 µM, first compound 0.0949 µM): 77.5%
viability, T/C (second compound 10 µM, first compound 0.3 µM): 60.7%

IC50 (curve of compound): > 1 µM
SMILES: CCN1CCN(Cc2ccc(Nc3ncc(F)c(-c4cc(F)c5nc(C)n(C(C)C)c5c4)n3)nc2)CC1
viability, T/C (compound 0.00316 µM): 99.8% and 91.7%
viability, T/C (compound 0.01 µM): 94.1% and 88%
viability, T/C (compound 0.0316 µM): 92.4% and 109%
viability, T/C (compound 0.1 µM): 99.5% and 96.7%
viability, T/C (compound 0.316 µM): 103% and 93.4%
viability, T/C (compound 1 µM): 92.4% and 82.3%

IC50 [1]: 7.05 µM
IC50 [2]: 6.44 µM
IC50 [3]: 6.42 µM
IC50 [4]: 6.64 µM
IC50 [5]: 6.11 µM
IC50 [6]: 6.42 µM
SMILES: CC1(C)CCC(CN2CCN(c3ccc(C(=O)NS(=O)(=O)c4ccc(NCC5CCOCC5)c([N+](=O)[O-])c4)c(Oc4cnc5[nH]ccc5c4)c3)CC2)=C(c2ccc(Cl)cc2)C1 + CNC(=O)c1ccc(Nc2nc(OC3CCCC3)c3c(-c4ccc5nc(C)oc5c4)c[nH]c3n2)c(OC)c1
viability, T/C [7]: 96.4%
viability, T/C [8]: 116%
viability, T/C [9]: 105%
viability, T/C [10]: 96.5%
viability, T/C [11]: 100%
viability, T/C [12]: 28.1%
viability, T/C [13]: 105%
viability, T/C [14]: 97.6%
viability, T/C [15]: 103%
viability, T/C [16]: 99.4%
viability, T/C [17]: 99.4%
viability, T/C [18]: 19.5%
viability, T/C [19]: 106%
viability, T/C [20]: 104%
viability, T/C [21]: 98.5%
viability, T/C [22]: 103%
viability, T/C [23]: 105%
viability, T/C [24]: 16.6%
viability, T/C [25]: 106%
viability, T/C [26]: 99.9%
viability, T/C [27]: 96.5%
viability, T/C [28]: 95.4%
viability, T/C [29]: 99.2%
viability, T/C [30]: 22.8%
viability, T/C [31]: 99.1%
viability, T/C [32]: 91.1%
viability, T/C [33]: 79.9%
viability, T/C [34]: 84.3%
viability, T/C [35]: 89.3%
viability, T/C [36]: 21%
viability, T/C [37]: 86.3%
viability, T/C [38]: 89%
viability, T/C [39]: 83.3%
viability, T/C [40]: 81.2%
viability, T/C [41]: 97.6%
viability, T/C [42]: 26.6%
